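Tested at 5 concentrations; 48 h exposure; 96-well plates; endpoints linearly interpolated, else capped at highest concentration. Abbreviation: GI50, concentration required for 50% inhibition of growth. At the TGI there is no net growth.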
Experiments:
Assay in all cases: NCI tumour cell line growth inhibition, 48 h
LOX IMVI melanoma = tested on: LOX IMVI melanoma
RPMI-8226 leukemia = tested on: RPMI-8226 leukemia
MCF7 breast = tested on: MCF7 breast
U251 CNS = tested on: U251 CNS
SK-OV-3 ovarian = tested on: SK-OV-3 ovarian
MDA-MB-231 breast = tested on: MDA-MB-231 breast
EKVX NSCLC = tested on: EKVX NSCLC
786-0 renal = tested on: 786-0 renal
RXF 393 renal = tested on: RXF 393 renal
OVCAR-3 ovarian = tested on: OVCAR-3 ovarian
A549 NSCLC = tested on: A549 NSCLC
HS 578T breast = tested on: HS 578T breast
NCI-H226 lung = tested on: NCI-H226 lung
NCI-H460 lung = tested on: NCI-H460 lung
UACC-62 melanoma = tested on: UACC-62 melanoma
CAKI-1 renal = tested on: CAKI-1 renal
MDA-MB-468 breast = tested on: MDA-MB-468 breast
M14 melanoma = tested on: M14 melanoma
HCT-116 colon = tested on: HCT-116 colon
SR leukemia = tested on: SR leukemia
SW-620 colon = tested on: SW-620 colon
HOP-62 NSCLC = tested on: HOP-62 NSCLC
UO-31 renal = tested on: UO-31 renal
NCI/ADR-RES ovarian = tested on: NCI/ADR-RES ovarian
SNB-19 CNS = tested on: SNB-19 CNS
ACHN renal = tested on: ACHN renal
HOP-92 NSCLC = tested on: HOP-92 NSCLC
CCRF-CEM leukemia = tested on: CCRF-CEM leukemia
OVCAR-5 ovarian = tested on: OVCAR-5 ovarian
NCI-H522 lung = tested on: NCI-H522 lung
UACC-257 melanoma = tested on: UACC-257 melanoma
BT-549 breast = tested on: BT-549 breast
T-47D breast = tested on: T-47D breast
A498 renal = tested on: A498 renal
NCI-H23 lung = tested on: NCI-H23 lung
HL-60(TB) leukemia = tested on: HL-60(TB) leukemia
DU-145 prostate = tested on: DU-145 prostate
SF-539 CNS = tested on: SF-539 CNS
K-562 leukemia = tested on: K-562 leukemia
MOLT-4 leukemia = tested on: MOLT-4 leukemia
SK-MEL-28 melanoma = tested on: SK-MEL-28 melanoma
SN12C renal = tested on: SN12C renal
IGROV1 ovarian = tested on: IGROV1 ovarian
OVCAR-8 ovarian = tested on: OVCAR-8 ovarian
HT29 colon = tested on: HT29 colon
MALME-3M melanoma = tested on: MALME-3M melanoma
PC-3 prostate = tested on: PC-3 prostate
HCT-15 colon = tested on: HCT-15 colon
SK-MEL-5 melanoma = tested on: SK-MEL-5 melanoma
SK-MEL-2 melanoma = tested on: SK-MEL-2 melanoma
SF-268 CNS = tested on: SF-268 CNS
COLO 205 colon = tested on: COLO 205 colon
SF-295 CNS = tested on: SF-295 CNS
MDA-MB-435 = tested on: MDA-MB-435
OVCAR-4 ovarian = tested on: OVCAR-4 ovarian
KM12 colon = tested on: KM12 colon
SNB-75 CNS = tested on: SNB-75 CNS
TK-10 renal = tested on: TK-10 renal
HCC-2998 colon = tested on: HCC-2998 colon

For O=C(N/N=C/c1ccc(Cl)cc1)c1ccc(OCc2nc3ccc(Cl)cc3[nH]2)cc1, the GI50 (LOX IMVI melanoma) was 6.22 µM, the TGI (LOX IMVI melanoma) was 19.1 µM and the GI50 (RPMI-8226 leukemia) was 16.6 µM. For the same compound, the TGI (RPMI-8226 leukemia) was > 100 µM, the GI50 (MCF7 breast) was 10 µM and the TGI (MCF7 breast) was 23.2 µM. It also gave a GI50 (U251 CNS) of 14.2 µM, a TGI (U251 CNS) of 33.1 µM and a GI50 (SK-OV-3 ovarian) of 16 µM. The TGI (SK-OV-3 ovarian) was 32.8 µM, the GI50 (MDA-MB-231 breast) was 10.8 µM and the TGI (MDA-MB-231 breast) was 23.2 µM. It also gave a GI50 (EKVX NSCLC) of 14.9 µM, a TGI (EKVX NSCLC) of 28.9 µM and a GI50 (786-0 renal) of 4.34 µM. It also gave a TGI (786-0 renal) of 16.9 µM, a GI50 (RXF 393 renal) of 10.5 µM and a TGI (RXF 393 renal) of 24.4 µM. The GI50 (OVCAR-3 ovarian) was 18 µM, the TGI (OVCAR-3 ovarian) was 42.3 µM and the GI50 (A549 NSCLC) was 12 µM. The TGI (A549 NSCLC) was 34.2 µM, the GI50 (HS 578T breast) was 11.2 µM and the TGI (HS 578T breast) was 50.9 µM. It also gave a GI50 (NCI-H226 lung) of 14.1 µM, a TGI (NCI-H226 lung) of 30.2 µM and a GI50 (NCI-H460 lung) of 4.68 µM. For the same compound, the TGI (NCI-H460 lung) was 16.8 µM, the GI50 (UACC-62 melanoma) was 12.6 µM and the TGI (UACC-62 melanoma) was 25.4 µM. For the same compound, the GI50 (CAKI-1 renal) was 17 µM, the TGI (CAKI-1 renal) was 34 µM and the GI50 (MDA-MB-468 breast) was 11.6 µM. The TGI (MDA-MB-468 breast) was 24.4 µM, the GI50 (M14 melanoma) was 10.2 µM and the TGI (M14 melanoma) was 25.3 µM. The GI50 (HCT-116 colon) was 4.46 µM, the TGI (HCT-116 colon) was 19.2 µM and the GI50 (SR leukemia) was 0.62 µM. The TGI (SR leukemia) was > 100 µM, the GI50 (SW-620 colon) was 6.79 µM and the TGI (SW-620 colon) was 23 µM. The GI50 (HOP-62 NSCLC) was 15.7 µM, the TGI (HOP-62 NSCLC) was 31.6 µM and the GI50 (UO-31 renal) was 13.1 µM. For the same compound, the TGI (UO-31 renal) was 26.3 µM, the GI50 (NCI/ADR-RES ovarian) was 15.9 µM and the TGI (NCI/ADR-RES ovarian) was 68 µM. It also gave a GI50 (SNB-19 CNS) of 15.4 µM, a TGI (SNB-19 CNS) of 29.5 µM and a GI50 (ACHN renal) of 14.3 µM. It also gave a TGI (ACHN renal) of 27.8 µM, a GI50 (HOP-92 NSCLC) of 13.4 µM and a TGI (HOP-92 NSCLC) of 30.8 µM. For the same compound, the GI50 (CCRF-CEM leukemia) was 6.78 µM, the TGI (CCRF-CEM leukemia) was 37.1 µM and the GI50 (OVCAR-5 ovarian) was 14.5 µM. The TGI (OVCAR-5 ovarian) was 32.7 µM, the GI50 (NCI-H522 lung) was 19.7 µM and the TGI (NCI-H522 lung) was 41.6 µM. It also gave a GI50 (UACC-257 melanoma) of 21.1 µM, a TGI (UACC-257 melanoma) of 46.6 µM and a GI50 (BT-549 breast) of 19.5 µM. For the same compound, the TGI (BT-549 breast) was 41.6 µM, the GI50 (T-47D breast) was 19.3 µM and the TGI (T-47D breast) was 42.9 µM. For the same compound, the GI50 (A498 renal) was 21.4 µM, the TGI (A498 renal) was 38.4 µM and the GI50 (NCI-H23 lung) was 6.59 µM. The TGI (NCI-H23 lung) was 19.7 µM, the GI50 (HL-60(TB) leukemia) was 26.4 µM and the TGI (HL-60(TB) leukemia) was > 100 µM. For the same compound, the GI50 (DU-145 prostate) was 10.8 µM, the TGI (DU-145 prostate) was 25.3 µM and the GI50 (SF-539 CNS) was 16.6 µM. For the same compound, the TGI (SF-539 CNS) was 30.6 µM, the GI50 (K-562 leukemia) was 3.81 µM and the TGI (K-562 leukemia) was 21.3 µM. For the same compound, the GI50 (MOLT-4 leukemia) was 7.51 µM, the TGI (MOLT-4 leukemia) was 27.3 µM and the GI50 (SK-MEL-28 melanoma) was 12.5 µM. For the same compound, the TGI (SK-MEL-28 melanoma) was 25.3 µM, the GI50 (SN12C renal) was 12.7 µM and the TGI (SN12C renal) was 25.8 µM. The GI50 (IGROV1 ovarian) was 11.6 µM, the TGI (IGROV1 ovarian) was 24.2 µM and the GI50 (OVCAR-8 ovarian) was 18.1 µM. It also gave a TGI (OVCAR-8 ovarian) of 55.5 µM, a GI50 (HT29 colon) of 15.2 µM and a TGI (HT29 colon) of 45.5 µM. For the same compound, the GI50 (MALME-3M melanoma) was 11.7 µM, the TGI (MALME-3M melanoma) was 24.5 µM and the GI50 (PC-3 prostate) was 7.48 µM. The TGI (PC-3 prostate) was 24.9 µM, the GI50 (HCT-15 colon) was 8.27 µM and the TGI (HCT-15 colon) was 21.9 µM. It also gave a GI50 (SK-MEL-5 melanoma) of 15.1 µM, a TGI (SK-MEL-5 melanoma) of 30.1 µM and a GI50 (SK-MEL-2 melanoma) of 18.6 µM. The TGI (SK-MEL-2 melanoma) was 40 µM, the GI50 (SF-268 CNS) was 21.2 µM and the TGI (SF-268 CNS) was 53.5 µM. For the same compound, the GI50 (COLO 205 colon) was 15.3 µM, the TGI (COLO 205 colon) was 32.1 µM and the GI50 (SF-295 CNS) was 12 µM. For the same compound, the TGI (SF-295 CNS) was 24.4 µM, the GI50 (MDA-MB-435) was 14.6 µM and the TGI (MDA-MB-435) was 31 µM. The GI50 (OVCAR-4 ovarian) was 15.5 µM, the TGI (OVCAR-4 ovarian) was 31.4 µM and the GI50 (KM12 colon) was 20.5 µM. For the same compound, the TGI (KM12 colon) was 66 µM, the GI50 (SNB-75 CNS) was 5.23 µM and the TGI (SNB-75 CNS) was 19.8 µM. The GI50 (TK-10 renal) was 19.5 µM, the TGI (TK-10 renal) was 38.3 µM and the GI50 (HCC-2998 colon) was 11.5 µM. It also gave a TGI (HCC-2998 colon) of 25.8 µM.
